Earlier results, collected in patent US5780243A, “Methods for the quantitative analysis of organic compounds” (Thaco Research, Ltd., priority 1996, dated 1998).

For CNC1C(O)C(NC)C2OC3(O)C(=O)CC(C)OC3OC2C1O (stereo not shown) [spectinomycin, decahydro-4a,7,9-trihydroxy-2-methyl-6,8-bis(methylamino)-4H-pyrano[2,3-b][1,4]benzodioxin-4-one], the “solubility in organic solvents” value is given as “virtual insolubility”.
